# US5585358A, “Derivatives of valproic acid amides and 2-valproenoic acid amides, method of making and use thereof as anticonvulsant agents” (Yissum Research Development Corporation of the Hebrew …, priority 1993, dated 1996)
# Where two headings read alike, the source gives them in different places.
# Key:
# [1] = rat p.o.; literature values; N.E. = not effective; cited from earlier work
# [2] = rat p.o.; literature values; cited from earlier work
# [3] = rat p.o.; literature values; cited from earlier work; remark: listed apart in the source
# [4] = type: in vivo, rat; design: key to Latency, Session I / Latency, Session II: latency in seconds for avoiding a potential shock
# Protocol: Test was performed on days 16-17 (session 1) and 22-23 (session 2) after initiation of drug treatment. Better performance is indicated by an increase in avoidance score, a decrease in latency time, and an increase in the number of crossings.
# (§1) The studies test for the level of motivation, association and short and long-term memory. The specific studies were the effect of compound 1 on the performance of rats in the locomotor test and passive and active response tests.
# The conditioned avoidance response (active avoidance test) of rats was determined in a Hugo-Basile automatic conditioning apparatus, which consists of a shuttle box with two separate floor grids. In this apparatus the rats are conditioned to jump from one side of the box to the other side. The conditioning is a 10 sec stimulus consisting of a light and electric buzzer. […] The session is then repeated with the same rats 7 days later. Experiments were carried out on days 16-17 and 22-23 from the start of drug treatment, and each rat received 60 trials with a 30 sec interval between each trial.
# The following parameters were recorded: a) the number of potential shocks successfully avoided; b) the latency response in seconds for avoiding a potential shock; and c) the total number of crossings made throughout the trials. In this test, a better performance is indicated by an increase in the avoidance of an electric shock, a decrease in the latency time to jump to the other side of the cage, and an increase in the number of times the rats crossed to the other side of the cage.
# Scores in the active avoidance test (conditioned avoidance response) of
# rats treated with compound 1 and related drugs. The tests in the first
# session were performed on days 16-17 from initiation of drug
# administration. Those in session II were performed on days 22-23, that is
# 7 days following session I. Number of rats in a group are given in […]
# [5] = mice i.p., literature values, N.E. = not effective, cited from earlier work
# [6] = in vivo; settings: mouse, ip
# [7] = subcutaneous bicuculline model (s.c. Bic), mice; type: in vivo
# From the text: (§2) N-(2-Propylpentanoyl)glycinamide (hereinafter compound 1) was further tested in two additional models. The third model, electrical kindling of rats, has been known to show efficacy of antiepileptic agents against complex partial seizures that evolve into generalized motor seizures. In these tests, rats were electrically stimulated via corneal electrodes twice daily for approximately 5 days and then once daily for an additional 10 days. Once the seizure criteria, as described by R. J. Racine, et al., Electroenceph. […] In addition, compound 1 was also tested in the subcutaneous bicuculline model (s.c. Bic).
# [8] = type: in vivo, rat
# Protocol: as §1
# In the locomotor test, motor activity was recorded 8 to 9 days after the beginning of drug treatment. Locomotion scores were recorded in cages (25×26cm) having a grid of infra-red beams at 4 cm intervals. Two categories of movements were recorded: small movements (those originating in stationary activities such as grooming and scratching), and big movements (those resulting in ambulation and recorded as the simultaneous crossing of more than two beams). Since rats are nocturnal animals, recordings were usually made between 18:00 PM-6:00 AM.
# Activity scores of drugtreated rats, measured in activity cages on days
# 8-9 after initiation of daily oral dosing with the given drug. Figures ar
# number of crossings ± SEM. Number of rats per group are given in […]
# [9] = cognitive impairment tests in rats (locomotor, passive and active response tests); type: in vivo, rat; settings: at minimum dose giving full protection in MES test
# From the text: A major neurological side effect observed in patients on treatment with antiepileptic agents is cognitive impairment. […] Results from the models used are taken as indicators of major constituents of human cognition.
# as §1
# [10] = maximal electroshock (MES) test, mice i.p.; type: in vivo; settings: for activity in MES model: doses up to 300 mg/kg
# [11] = neurotoxicity in rats (positional sense test and gait and stance test); type: in vivo; settings: rat p.o.
# [12] = subcutaneous pentylenetetrazol (s.c. Met) seizure threshold test, mice i.p.; type: in vivo; settings: for activity in s.c. Met model: doses up to 300 mg/kg
# [13] = neurotoxicity in mice (rotorod ataxia test)
# [14] = screen for protection against chemically and electrically induced convulsions (at least two models of epilepsy); type: in vivo; settings: mice i.p. and/or rats p.o.; MES, s.c. Met, s.c. Bic, electrical kindling
# From the text: (§3) The first model, the subcutaneous pentylenetetrazol (s.c. Met) seizure threshold test, is a standard screening procedure to show efficacy for agents against absence seizures. The second model, the maximal electroshock (MES) test, is used to show efficacy for antiepileptic agents against generalized seizures. In these studies, convulsions were inhibited or prevented in mice after intraperitoneal (i.p.) administration and/or in rats after oral (p.o.) administration of the compounds.
# as §2
# [15] = electrical kindling model, rats p.o.; type: in vivo; settings: po; rat p.o.
# From the text: as §2
# [16] = maximal electroshock (MES) test, rat p.o.; type: in vivo; settings: for ED100: Rattus norvegicus, rats, read-out: minimum dose giving full protection against seizures in the MES test
# From the text: as §3, §2
# and rats by subcutaneous administration of pentylenetetrazol (s.c. Met
# test) or by electrical stimulation (MES test). N.E. = not effective.
# [17] = type: in vivo, rat; remark: listed apart in the source
# Protocol: Tests were performed on day 10 after drug treatment. Latency, in seconds, represents response time to entry into dark compartment. Maximum latency is 300 sec. Longer latencies represent improved performance. Bars represent mean standard error (SEM).
# as §1
# To measure passive avoidance responses, tests were performed on days 10, 12, 14, 20, and 26 after initiation of drug treatment. The apparatus consisted of a lit chamber that can be separated from a dark chamber by a sliding door. In the experiment, a rat is placed in a lit chamber for 30 sec, the door is then opened and the rat moves into the dark chamber with latency that is recorded. Upon entry into the dark chamber, the door is shut and a 0.3 mA footshock is delivered for 3 sec. Retention of the experience is determined after 48 hours by repeating the test and recording the latency. The maximum latency was arbitrarily assigned the value of 300 sec. Longer latencies are taken as a measure of improved memory.
# [18] = literature values; cited from earlier work
# [19] = rat, in vivo, po; cited from earlier work
# [20] = mice i.p.; literature values; cited from earlier work
# [21] = median lethal dose in mice; settings: mouse, in vivo, ip
# [22] = background literature; cited from earlier work
# [23] = rats, days 16-17, compound 1 200, carbamazepine 15, Na valproate 500 mg/kg
# [24] = rats, days 22-23, compound 1 200, carbamazepine 15, Na valproate 500 mg/kg
# [25] = rats, daily oral dosing, days 8-9, compound 1 200 mg/kg, Na Valproate 500 mg/kg, ± SEM
smiles,measurement,setting,value
NC(=O)N1c2ccccc2C=Cc2ccccc21 [Carbamizepine],"ED50, s.c. MET model",[1],N.E.
same,"ED50, MES model",[2],8.5 mg/kg
same,"ED50, electrical kindling model",[3],28.9 mg/kg
same,"Avoidance, Session I",[4]; [23],7 ± 4
same,"Crossings, Session I",[4]; [23],18 ± 10
same,"Latency, Session I",[4]; [23],27 ± 2 s
same,"Avoidance, Session II",[4]; [24],2 ± 2
same,"Crossings, Session II",[4]; [24],11 ± 8
same,"Latency, Session II",[4]; [24],29 ± 1 s
same,"ED50, s.c. MET model",[5],N.E.
"CCCC(CCC)C(=O)NCC(N)=O [Compound 1, N-(2-n-Propylpentanoyl)glycinamide]",LD50,[6],> 4000 mg/kg
same,"protection from seizures, s.c. Bic model",[7],"full protection from seizures in mice, at a dose that was approximately that of literature values for the ED50 for VPA"
same,"Big mov. (activity score), day activity 14.00-20.00 h",[8]; [25],2402 ± 307 number of crossings
same,"Big mov. (activity score), night activity 20.00-08.00 h",[8]; [25],7217 ± 765 number of crossings
same,"Total mov. (activity score), day activity 14.00-20.00 h",[8]; [25],7749 ± 1188 number of crossings
same,"Total mov. (activity score), night activity 20.00-08.00 h",[8]; [25],22568 ± 2209 number of crossings
same,motor activity in locomotor test,"[8]; rats, vs control",no significant difference in motor activity between the control and compound 1
same,cognitive impairment compared with VPA,[9],less cognitive impairment than VPA
same,"PI (protective index, TD50/ED50), MES model",[10],2.4
same,ED50,"[10]; Mus musculus, ip, read-out: ED50, MES model",152 mg/kg
same,TD50,"[11]; in vivo, po, read-out: TD50 (median neurological toxic dose)",> 1000 mg/kg
same,TD50 (median neurological toxic dose),[11],> 1000 mg/kg
same,active avoidance performance,"[4]; rats, compared with VPA group, compound 1 200 mg/kg, VPA 500 mg/kg, daily oral",significantly better performance than the VPA treated group
same,"Avoidance, Session I",[4]; [23],14 ± 7
same,"Crossings, Session I",[4]; [23],38 ± 13
same,"Latency, Session I",[4]; [23],21 ± 3 s
same,"Avoidance, Session II",[4]; [24],12 ± 7
same,"Crossings, Session II",[4]; [24],35 ± 9
same,"Latency, Session II",[4]; [24],22 ± 3 s
same,"PI (protective index, TD50/ED50), s.c. MET model",[12],2.9
same,ED50,"[12]; Mus musculus, ip, read-out: ED50, s.c. MET model",127 mg/kg
same,TD50 compared with VPA,"[13]; mice i.p., vs VPA",significantly higher for compound 1 (less neurotoxic)
same,TD50,"[13]; mouse, in vivo, ip",369 mg/kg
same,anticonvulsant activity,[14],showed anticonvulsant activity in rodents in all of the above mentioned tests
same,ED50,[15],162 mg/kg
same,ED100,[16]; po,200 mg/kg
same,ED50,"[16]; po, rat p.o., read-out: ED50, MES model",73 mg/kg
same,"Pi (protective index, TD50/ED50), MES model",[16]; rat p.o.,> 13.7
same,"ED50 in MES model, times lower (more efficacious) than VPA","[16]; rat p.o., vs VPA",seven
same,ED50 in MES model relative to phenytoin,"[16]; rat p.o., vs phenytoin",approximately twice
same,passive avoidance performance (retention),"[17]; rats, day 16, compound 1 200 mg/kg, VPA 500 mg/kg, daily oral",retained their acquired knowledge to avoid the electric shock as well as the control group
CCCC(CCC)C(=O)O [Na Valproate],"Big mov. (activity score), day activity 14.00-20.00 h","[8]; rat, in vivo",2784 ± 352 number of crossings
same,"Big mov. (activity score), night activity 20.00-08.00 h","[8]; rat, in vivo",5832 ± 854 number of crossings
same,"Total mov. (activity score), day activity 14.00-20.00 h","[8]; rat, in vivo",8963 ± 1554 number of crossings
same,"Total mov. (activity score), night activity 20.00-08.00 h","[8]; rat, in vivo",18876 ± 2039 number of crossings
same,"Avoidance, Session I","[4]; rat, in vivo",2 ± 3
same,"Avoidance, Session II","[4]; rat, in vivo",6 ± 5
same,"Crossings, Session I","[4]; rat, in vivo",13 ± 2
same,"Crossings, Session II","[4]; rat, in vivo",16 ± 9
same,"Latency, Session I","[4]; rat, in vivo",28 ± 0.4
same,"Latency, Session II","[4]; rat, in vivo",27 ± 2
O=C1NC(=O)C(c2ccccc2)(c2ccccc2)N1 [Phenytoin],"ED50, s.c. MET model",[1],N.E.
same,efficacy in s.c. Bic model,[18],not effective
same,"ED50, MES model",[2],29.8 mg/kg
same,"ED50, s.c. MET model",[5],N.E.
same,TD50 (median neurological toxic dose),[19],> 3000 mg/kg
"CCCC(CCC)C(=O)O [VPA, 2-propylpentanoic acid]","ED50, s.c. MET model",[1],180 mg/kg
same,"ED50, MES model",[2],490 mg/kg
same,"ED50, electrical kindling model",[3],117 mg/kg
same,active avoidance performance compared with control group,"[4]; rat, in vivo",worse performance
same,"ED50, MES model",[20],272 mg/kg
same,LD50,[21],658 mg/kg
same,"ED50, s.c. MET model",[5],146 mg/kg
same,"ED50, s.c. MET model",[5]; listed as Valproic acid,149 mg/kg
same,adverse effects,[22],considerable adverse effects including hepatotoxicity and teratogenicity
same,ED100,[16]; po,500 mg/kg
same,passive avoidance performance (retention),"[17]; rat, in vivo",performed much worse
CCCCCNCC(N)=O [milacemide],activity in MES model,[10],neither valproylglycine nor milacemide was active
same,activity in s.c. Met model,[12],neither valproylglycine nor milacemide was active
CCCC(CCC)C(=O)NCC(=O)O [valproylglycine],activity in MES model,[10],neither valproylglycine nor milacemide was active
same,activity in s.c. Met model,[12],neither valproylglycine nor milacemide was active
